Data published in ChEMBL document CHEMBL1146799, “Molecular modeling on DNA cleavage activity of seryl-histidine and related dipeptide” (Bioorg Med Chem Lett, 2004).
Residues, ends and D or L forms follow the SMILES beside them.

What was measured:
Nucleic Acid [1] = test: DNA cleaving activity was determined; +/- indicates marginally detectable cleavage activity; type: functional
Nucleic Acid [2] = test: DNA cleaving activity was determined; +++++ indicates 100% of Ser-His cleavage activity; type: functional

With `C[C@@H](O)[C@H](N)C(=O)N[C@@H](Cc1c[nH]cn1)C(=O)O` (H-Thr-His-OH) the Activity (Nucleic Acid [1]) was “+/-”.
In the case of `N[C@@H](CO)C(=O)N[C@@H](Cc1c[nH]cn1)C(=O)O` (H-Ser-His-OH), the Activity (Nucleic Acid [2]) is reported as “++++”.
